US8241607B2, “Use of fructose-based compounds for the diagnosis of cancer” (priority 2005, dated 2012)
Entries after “also recorded” stand apart in the source; their conditions may differ.

System: PANC-1 cells
Test: Inhibition of PANC-1 proliferation by oxythiamine (MTS assay)
Assay type: cell-based
Details: oxythiamine 0.5 mM, 72 h
Method: FIG. 35 depicts inhibition of pancreatic cancer PANC-1 cell proliferation by incubation with the transketolase inhibitor, oxythiamine (0.5-2 mM) for 72 h in accordance with an embodiment of the present invention. Proliferative rates were measured using the MTS proliferation assay.
The inventors believe that fructose-treatment of pancreatic cancer cells led to an increase in TKK-driven nucleic acid synthesis, and thus fructose-treatment would result in an increase in either PANC-1 TKK expression and/or activity in comparison to equivalent glucose concentrations. Western blot analysis on protein lysates derived from fructose-, and glucose-treated PANC-1 cells were performed (5.5 mM fructose, and glucose for 24, and 48 h as per previous protocol) using a specific TKK antibody, and compared TKK expression in the fructose-, and glucose-treated PANC-1 cells. As depicted in FIG. 33, TKK expression at 24 h, and 48 h in protein lysates derived from 5.5 mM glucose-treated PANC-1 cells was increased in comparison to expression in 2 mM glucose-treated cells. […] After gentle mixing the absorbance of the mixture was measured at 10 min intervals for 2 h at 340 nm. Transketolase activity was then derived from the difference in absorbance at 10, and 80 minutes, and expressed as nmol/min/million cells. […] Pancreatic cancer proliferation rates were then measured using the MTS assay (FIG. 35). […]

Cc1ncc(C[n+]2csc(CCO)c2C)c(=O)[nH]1 [oxythiamine]
effect on fructose-mediated increase in pancreatic cancer cell proliferation (5.5 mM fructose): virtually abolished; also recorded: almost completely abrogate | effect on glucose-induced and fructose-induced PANC-1 proliferation: inhibited glucose-induced and fructose-induced PANC-1 proliferation
